The source of these data is PubChem BioAssay AID248 (DTP/NCI, 2004).

The subject of the experiment is L1210 leukemia ip in BDF1 mice, survival T/C. The experiment in a line: NCI In Vivo Anticancer Drug Screen. Data for tumor model L1210 Leukemia (intraperitoneal) in B6D2F1 (BDF1) mice. To be noted: endpoint: mean survival time, higher = longer survival. The gist of the method: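 In this screen, tumor-bearing mice given compound are compared to those given vehicle, and their survival values are reported as a treated-to-control quotient.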

[1] abbreviates: dose: 200.0 mg/kg/injection, schedule: Q01DX009 (ip), vehicle: saline with Tween-80.
[2] abbreviates: dose: 100.0 mg/kg/injection, schedule: Q04DX002 (ip), vehicle: Klucel (hydroxypropylcellulose) (HPC).
Setting [3] is: dose: 200.0 mg/kg/injection, schedule: Q04DX002 (ip), vehicle: Klucel (hydroxypropylcellulose) (HPC).
Where [4] appears, read: dose: 400.0 mg/kg/injection, schedule: Q04DX002 (ip), vehicle: Klucel (hydroxypropylcellulose) (HPC).
The mark [5] stands for this setting: dose: 100.0 mg/kg/injection, schedule: Q01DX001 (ip), vehicle: other.
Setting [6] is: dose: 200.0 mg/kg/injection, schedule: Q01DX001 (ip), vehicle: other.
The mark [7] stands for this setting: dose: 100.0 mg/kg/injection, schedule: Q04DX003 (ip), vehicle: saline with Tween-80.
Where [8] appears, read: dose: 200.0 mg/kg/injection, schedule: Q04DX003 (ip), vehicle: saline with Tween-80.
[9] abbreviates: dose: 400.0 mg/kg/injection, schedule: Q04DX003 (ip), vehicle: saline with Tween-80.

Each structure is given as a SMILES string. Where “and” joins values, the source holds several entries; their conditions need not be identical. Equal values may be shown once. Toxic doses and inconclusive results are not listed.

Turning to `CNS(=O)(=O)c1ncnc2nc[nH]c12`, the T/C is 113 % of control (dose: 3.0 mg/kg/injection, schedule: Q01DX Z (ip), vehicle: carboxymethylcellulose (CMC)); 115 % of control (dose: 6.0 mg/kg/injection, schedule: Q01DX Z (ip), vehicle: carboxymethylcellulose (CMC)); 119 % of control (dose: 12.0 mg/kg/injection, schedule: Q01DX Z (ip), vehicle: carboxymethylcellulose (CMC)); 100 % of control (dose: 22.0 mg/kg/injection, schedule: Q01DX Z (ip), vehicle: carboxymethylcellulose (CMC)); 117 % of control (dose: 25.0 mg/kg/injection, schedule: Q01DX Z (ip), vehicle: carboxymethylcellulose (CMC)); 100 % of control (dose: 33.0 mg/kg/injection, schedule: Q01DX Z (ip), vehicle: carboxymethylcellulose (CMC)). Further, the T/C is 115 % of control (dose: 50.0 mg/kg/injection, schedule: Q01DX009 (ip), vehicle: saline with Tween-80); 121 % of control (dose: 50.0 mg/kg/injection, schedule: Q01DX Z (ip), vehicle: carboxymethylcellulose (CMC)); 121 % of control (dose: 75.0 mg/kg/injection, schedule: Q01DX Z (ip), vehicle: carboxymethylcellulose (CMC)); 100 % of control (dose: 100.0 mg/kg/injection, schedule: Q01DX001 (ip), vehicle: acetone); 112 % of control and 88 % of control (dose: 132.0 mg/kg/injection, schedule: Q01DX001 (ip), vehicle: saline); 112 % of control (dose: 132.0 mg/kg/injection, schedule: Q01DX009 (ip), vehicle: saline with Tween-80). Besides, the T/C (dose: 132.0 mg/kg/injection, schedule: Q01DX009 (ip), vehicle: saline) is 110 % of control; the T/C (dose: 132.0 mg/kg/injection, schedule: Q04DX003 (ip), vehicle: saline) is 121 % of control; the T/C (dose: 200.0 mg/kg/injection, schedule: Q01DX001 (ip), vehicle: acetone) is 182 % of control; the T/C (dose: 200.0 mg/kg/injection, schedule: Q01DX001 (ip), vehicle: saline) was 103 % of control and 108 % of control; the T/C under setting [1] is 162 % of control; the T/C (dose: 200.0 mg/kg/injection, schedule: Q04DX003 (ip), vehicle: saline) was 122 % of control. Also, the T/C (dose: 300.0 mg/kg/injection, schedule: Q01DX001 (ip), vehicle: saline) is 101 % of control and 103 % of control; the T/C (dose: 300.0 mg/kg/injection, schedule: Q01DX009 (ip), vehicle: saline) is 117 % of control.
With `CC(C)(C)n1cc(C(=O)c2ccccc2)cc1-c1ccccc1`, the T/C by setting is: (dose: 100.0 mg/kg/injection, schedule: Q01DX009 (ip), vehicle: saline with Tween-80) 91 % of control; under setting [1], 91 % of control; (dose: 400.0 mg/kg/injection, schedule: Q01DX009 (ip), vehicle: saline with Tween-80) 87 % of control.
On to `CCNc1nc(Cl)nc(C(Cl)(Cl)Cl)c1Cl` (tested in a mixture with another compound), for which the T/C was 104 % of control under setting [2], 96 % of control under setting [3] and 100 % of control under setting [4].
On to `CC1(C)N=C(N)N=C(N)N1c1ccc(OCCCCOc2ccc(S(=O)(=O)F)cc2)cc1`, for which the T/C (dose: 75.0 mg/kg/injection, schedule: Q01DX001 (ip), vehicle: Klucel (hydroxypropylcellulose) (HPC)) is 106 % of control; the T/C (dose: 150.0 mg/kg/injection, schedule: Q01DX001 (ip), vehicle: Klucel (hydroxypropylcellulose) (HPC)) is 91 % of control; the T/C (dose: 300.0 mg/kg/injection, schedule: Q01DX001 (ip), vehicle: Klucel (hydroxypropylcellulose) (HPC)) was 96 % of control.
Regarding `O=C(N/N=C/c1ccccc1)NNCc1ccccc1`, the T/C under setting [5] was 97 % of control; the T/C (dose: 100.0 mg/kg/injection, schedule: Q04DX003 (ip), vehicle: other) was 111 % of control; the T/C under setting [6] was 97 % of control; the T/C (dose: 200.0 mg/kg/injection, schedule: Q04DX003 (ip), vehicle: other) is 101 % of control; the T/C (dose: 400.0 mg/kg/injection, schedule: Q01DX001 (ip), vehicle: other) is 104 % of control; the T/C (dose: 400.0 mg/kg/injection, schedule: Q04DX003 (ip), vehicle: other) is 86 % of control.
Regarding `CCCC(C)OP(=O)(OC(C)CC)OC(C)CC` (stereo unspecified), the T/C (dose: 100.0 mg/kg/injection, schedule: Q01DX009 (ip), vehicle: Klucel (hydroxypropylcellulose) (HPC)) is 97 % of control and the T/C (dose: 200.0 mg/kg/injection, schedule: Q01DX009 (ip), vehicle: Klucel (hydroxypropylcellulose) (HPC)) was 97 % of control.
Consider `Cc1c(N)nc(N)nc1C(=O)O`, for which the T/C (dose: 25.0 mg/kg/injection, schedule: Q01DX001 (ip), vehicle: Klucel (hydroxypropylcellulose) (HPC)) was 108 % of control; the T/C (dose: 50.0 mg/kg/injection, schedule: Q01DX001 (ip), vehicle: Klucel (hydroxypropylcellulose) (HPC)) was 93 % of control; the T/C (dose: 100.0 mg/kg/injection, schedule: Q01DX001 (ip), vehicle: Klucel (hydroxypropylcellulose) (HPC)) was 105 % of control.
Turning to `O=[N+]([O-])c1ncn(C2CCCCO2)c1Br` (stereo unspecified), the T/C by setting is: (dose: 50.0 mg/kg/injection, schedule: Q04DX003 (ip), vehicle: gum acacia) 99 % of control; (dose: 100.0 mg/kg/injection, schedule: Q04DX003 (ip), vehicle: gum acacia) 100 % of control; (dose: 200.0 mg/kg/injection, schedule: Q04DX003 (ip), vehicle: gum acacia) 100 % of control.
Take `O=C1COc2ccccc2N1`: the T/C was 96 % of control (dose: 50.0 mg/kg/injection, schedule: Q04DX003 (ip), vehicle: Klucel (hydroxypropylcellulose) (HPC)); 103 % of control under setting [5]; 94 % of control (dose: 100.0 mg/kg/injection, schedule: Q04DX003 (ip), vehicle: Klucel (hydroxypropylcellulose) (HPC)); 96 % of control under setting [6]; 96 % of control (dose: 200.0 mg/kg/injection, schedule: Q04DX003 (ip), vehicle: Klucel (hydroxypropylcellulose) (HPC)).
As for `COC(=O)C(C(=O)OC)C(Br)(OC(C)=O)OC(C)=O`, the T/C reads like this: under setting [7], 98 % of control; under setting [8], 100 % of control; under setting [9], 106 % of control.
As to `CC([CH2][Hg][Cl])c1ccccc1` (stereo unspecified), the T/C reads like this: (dose: 3.13 mg/kg/injection, schedule: Q01DX009 (ip), vehicle: saline with Tween-80) 95 % of control; (dose: 6.25 mg/kg/injection, schedule: Q01DX009 (ip), vehicle: saline with Tween-80) 92 % of control; (dose: 6.25 mg/kg/injection, schedule: Q04DX003 (ip), vehicle: Klucel (hydroxypropylcellulose) (HPC)) 101 % of control; (dose: 12.5 mg/kg/injection, schedule: Q01DX009 (ip), vehicle: saline with Tween-80) 90 % of control; (dose: 12.5 mg/kg/injection, schedule: Q04DX003 (ip), vehicle: Klucel (hydroxypropylcellulose) (HPC)) 119 % of control.
Turning to `Cc1ccccc1N1CCN(CCO)CC1`, the T/C reads like this: (dose: 12.5 mg/kg/injection, schedule: Q01DX001 (ip), vehicle: saline) 105 % of control; (dose: 12.5 mg/kg/injection, schedule: Q04DX003 (ip), vehicle: saline) 100 % of control; (dose: 25.0 mg/kg/injection, schedule: Q01DX001 (ip), vehicle: saline) 105 % of control; (dose: 25.0 mg/kg/injection, schedule: Q04DX003 (ip), vehicle: saline) 110 % of control; (dose: 50.0 mg/kg/injection, schedule: Q01DX001 (ip), vehicle: saline) 100 % of control; (dose: 50.0 mg/kg/injection, schedule: Q04DX003 (ip), vehicle: saline) 110 % of control.
Turning to `Cc1ccc(NCc2nc(N)nc(Nc3ccc(C)cc3)n2)cc1`, the T/C by setting is: under setting [7], 93 % of control; under setting [8], 101 % of control; under setting [9], 97 % of control.
In the case of `C1=NC(c2ccccc2)=CN(C2CCCC2)C1(c1ccccc1)C1CCCC1` (stereo unspecified), the T/C was 105 % of control (dose: 50.0 mg/kg/injection, schedule: Q04DX002 (ip), vehicle: saline); 98 % of control under setting [2]; 108 % of control (dose: 100.0 mg/kg/injection, schedule: Q04DX002 (ip), vehicle: saline); 98 % of control under setting [3]; 108 % of control (dose: 200.0 mg/kg/injection, schedule: Q04DX002 (ip), vehicle: saline); 109 % of control under setting [4].
